Laboratory results reported in patent publication US9861640B2, “Medicament for treatment of Alzheimer's disease” (KEMPHYS LTD., priority 2013, dated 2018).

Experiments:
[1] = system: Aβ40 and Aβ42; experiment: Aβ40 and Aβ42 sandwich ELISA of TBS-soluble and TBS-insoluble brain fractions; format: in vivo, mouse; details: Am80 alone 3 mg/kg/d or 6 mg/kg/d for 17 days, oral
Description: APP23 mice begin forming amyloid deposits when they are 6 months old, but memory deficits in the MWM test appear quite early (before 3 months of age). Here, we used 8.5-month-old male APP23 mice and their WT littermates (C57BL/6J). We used stratified random sampling to divide mice (four to six per cage) into four groups to equalize the mean body weight of the study groups: mice given 0.5 mg/kg/d Am80, those given 5 mg/kg/d HX630, those given the mixture of 0.5 mg/kg/d Am80 and 5 mg/kg/d HX630, and those given the vehicle. […]
The TBS-soluble (TBS-extractable) fraction and the TBS-insoluble (but guanidine HC1-extractable) fraction from the cerebral hemispheres or hippocampus were prepared as described previously. The amounts of Aβ40 and Aβ42 in each fraction were determined by using sandwich ELISAs (294-64701 and 290-62601 (Wako), respectively), according to the manufacturer's instructions. The amounts of tumor necrosis factor-α (TNF-α) and IL-4 in the TBS-soluble fractions of cerebral cortex and hippocampus were analyzed by means of sandwich ELISAs KMC3012 (Invitrogen) and ELM-IL-4-001 (RayBiotech, Inc., Norcros, Ga., USA), respectively, according to the manufacturer's instructions. Protein concentrations were determined with the Bradford Protein Assay Reagent (Thermo Fisher Scientific Inc., Rockford, Ill., USA), with BSA as the standard.

[2] = system: CD36; experiment: Immunoblot of CD36 in rat primary microglia; format: cell-based; details: 5 μM each, 48 h; relative to vehicle-treated cells
From the text: Primary microglia (type 1) were harvested from primary mixed glial cell cultures prepared from neonatal Wistar rat pups, as previously reported. Mouse microglial cell line MG5 and mouse glial cell line A1 were maintained as previously described. Mouse neuroblastoma cell line N1E-115 and Neuro 2a (American Type Culture Collection, Manassas, Va., USA) were maintained in Dulbecco's modified Eagle's medium (DMEM) supplemented with 10% fetal bovine serum (FBS), 20 U/ml penicillin (Invitrogen, Gaithersburg, Md., USA), and 20 μg/ml streptomycin (Invitrogen). Primary rat microglia were treated with Am80 (5 μM) and/or HX630 (5 μM) in the presence and absence of GW9662 (10 μM) for 48 h in Eagle's MEM supplemented with 10% FBS and 0.2% glucose. MG5 cells and A1 cells were treated with Am80 (5 μM) and/or HX630 (5 μM) for 48 h in DMEM containing 10% FBS. […]
Rat primary microglia and mouse microglial MG5 cells (5×10^6 cells per 100-mm dish) were homogenized in RIPA buffer [10 mM Hepes-NaOH (pH 7.4) containing 150 mM NaCl, 1 mM EDTA, 1% Triton X-100, 0.5% sodium deoxycholate, 0.1% SDS, 1 mM PMSF, 1 mg/ml leupeptin. […] Bound horseradish peroxidase-labeled antibodies were then detected via chemiluminescence (an ECL kit; Pierce, Rockford, Ill., USA). Protein concentrations were determined with the BCA Protein Assay Reagent (Pierce) and Bradford Protein Assay Reagent (Pierce).

SMILES | Aβ levels in APP23 mice, higher dose [1] | CD36 expression in rat primary microglia [2] [fold]
CC1(C)CCC(C)(C)c2cc(NC(=O)c3ccc(C(=O)O)cc3)ccc21 [Am80, 4-{(5,6,7,8-tetrahydro-5,5,8,8-tetramethyl-2-naphthalenyl)carbamoyl}benzoic acid] | neither reduced Aβ levels | –
CN1c2ccccc2N=C(c2ccc(C(=O)O)cc2)c2cc3c(cc21)C(C)(C)CCC3(C)C [HX630, 4-[5H-2,3-(2,5dimethyl-2,5-hexano)-5-methyldibenzo[b,e]-diazepin-11-yl]benzoic acid] | – | 1.3
